Key:
MBT-2 cells [1] = test: MBT-2 cell proliferation assay (MTS tetrazolium); assay type: cell-based; conditions: 3 days, medium with free or extracted paclitaxel replaced every day, 2.9×10^−6 M to 2.9×10^−9 M or serial dilutions
Experimental: MBT-2 cells in culture flasks were maintained in Dulbecco's Modified Eagles Medium, 10% fetal calf serum, 100 μg/mL penicillin and 100 μg/mL streptomycin at 37° C. in an atmosphere of 5% CO2.
For proliferation assay experiments, cells were harvested with Trypsin-EDTA and seeded (3,000 cells) on an uncoated 96-well plate (Falcon). A standard curve was established by using paclitaxel solutions that were prepared by first dissolving paclitaxel in dimethylsulfoxide (DMSO), then dilution with culture medium. Final concentration of DMSO was 0.75%. After 1 day, the culture medium was replaced by medium containing free paclitaxel, with concentrations ranging from 2.9×10^−6 M to 2.9×10^−9 M or paclitaxel extracted from a paclitaxel-loaded microparticle, with serial dilutions. […] After 3 days, cell proliferation was measured by a tetrazolium-based assay (CellTiter96, Promega). […] Formazan production, related to enzymatic cell activity, was determined at 490 rim (Biorad plate reader Model 550). Results are expressed as a percentage of growth inhibition compared to cells incubated in the same conditions with medium. Paclitaxel encapsulation was then calculated from the standard curve of growth inhibition of free paxlitaxel.
Paclitaxel-loaded microparticle activity on MBT-2 cells was also determined with no extraction process. […] After 3 days, cell proliferation was measured as described above.

MBT-2 cells [2] = test: Observation of MBT-2 cells after incubation with free paclitaxel or particles (confocal microscope); assay type: cell-based; conditions: 4.4×10^−5 M paclitaxel, observed on day 4
Experimental: Cells were also observed after incubation with free paclitaxel or particles. Cells were seeded on chambered cover-glasses (Labtek). After 1 day, free paclitaxel (4.4×10^−5 M) or particles (same concentration of paclitaxel) were added. Medium was replaced every day with free paclitaxel or medium only in the case of the particles. On day 4, cells were washed, fixed during 30 minutes with paraformaldehyde (2%) then observed with a confocal microscope (Zweiss Axiovert 100) for localization of particles.

[3] = system: BBN-induced bladder cancer; test: Antitumor activity on BBN-induced bladder cancer: survival and body weight; assay type: in vivo; conditions: BBN mice
Experimental: (§1) Bladder cancer was induced in female Balb-c mice (8 weeks old) with the carcinogen BBN that was given as a 0.05% solution in the drinking water during 4 weeks. Mice were then treated intravesically (50 μL) with free paclitaxel ([…]) in Tween 80 5%), loaded particles (100 μg) or unloaded particle suspensions. Schedule of administration was the following: mice received the treatment every week during 4 weeks or every other week during 4 weeks. Body weights were recorded every week for all the animals. One week after the last instillation, all the animals were killed. Bladders were removed, weighed and fixed in paraformaldehyde 10% overnight then embedded in paraffin and sectioned.
The anti-cancer activity of paclitaxel encapsulated in microparticles of the invention was assayed against bladder cancer following intravesical instillation. Experimental bladder cancer was induced in female Balb/c mice with BBN, a carcinogenic compound that was added to the drinking water 4 weeks before starting the treatment we compared the same dose (100 μg) of free paclitaxel, encapsulated paclitaxel and non-loaded particles as a control (12 animals per group). Mice received the treatment either once a week or every other week for 4 weeks and number of surviving mice as well as body weight of mice were recorded every week. […]

[4] = system: BBN-induced bladder cancer; test: Histologic evaluation and BrdU proliferation index of bladder sections of BBN-mice; assay type: in vivo; conditions: for Dysplasia (No) / HGTCC (No): number of animals; for CIS (No): number of animals with carcinoma in situ
Experimental: as §1
One week after the last instillation, all the animals were sacrificed and histologic evaluation was performed on haematoxilin and eosin stained sections (table 1). […] In the group treated with free paclitaxel once a week or every other week, CS was found in 5 cases (71°/b) and 7 cases (78%), respectively. On the contrary, no animal of 7 (0%) in the group treated with encapsulated paclitaxel once a week had CIS. Only 2 animals of 9 (22%) treated with particles every other week had CIS. In the groups treated with the paclitaxel, the urothelium was focally or predominantly denuded.
Proliferation index was calculated on these sections using the BrdU incroporation into proliferative cells. BrdU staining was localized in the nucleus with a fine granularity. Nuclei were considered BrdU positve if any nuclear staining was observed. The control group presented a proliferative index of 30% compared to the proliferative index of 10% in a normal urothelium. In all other groups, there was a high proliferative index, from about 35% in groups receiving encapsulated paclitaxel to 65% in groups receiving free paclitaxel.

[5] = 100 μg every other week for 4 weeks

| SMILES | MBT-2 cell proliferation (MBT-2 cells [1]) | shape of the cells (MBT-2 cells [2]) | survival rate ([3]; 100 μg intravesically every other week for 4 weeks) [%] | survival rate ([3]; 100 μg intravesically once a week for 4 weeks) [%] | CIS (%) [4, 5] | Proliferative Index (%) ([4]; 100 μg every other week for 4 weeks, BrdU) | CIS (%) ([4]; 100 μg every other week for 4 weeks, listed as free paclitaxel) | Dysplasia (No) [4, 5] | HGTCC (No) [4, 5] | CIS (No) [4, 5] | CIS (%) ([4]; 100 μg once a week for 4 weeks) | Proliferative Index (%) ([4]; 100 μg once a week for 4 weeks, BrdU) | CIS (%) ([4]; 100 μg once a week for 4 weeks, listed as free paclitaxel) | Dysplasia (No) ([4]; 100 μg once a week for 4 weeks) | HGTCC (No) ([4]; 100 μg once a week for 4 weeks) | CIS (No) ([4]; 100 μg once a week for 4 weeks) | effect on the incidence of CIS ([4]; 100 μg, BBN induced bladder cancer) | proliferative index ([4]; BrdU, groups without stated schedule) [%] |
| --- | --- | --- | --- | --- | --- | --- | --- | --- | --- | --- | --- | --- | --- | --- | --- | --- | --- | --- |
| CC(=O)O[C@H]1C(=O)[C@@]2(C)[C@H]([C@H](OC(=O)c3ccccc3)[C@]3(O)C[C@H](OC(=O)[C@H](O)[C@@H](NC(=O)c4ccccc4)c4ccccc4)C(C)=C1C3(C)C)[C@]1(OC(C)=O)CO[C@@H]1C[C@@H]2O [Free paclitaxel, Paclitaxel] | decreased with an increased concentration | modification of the shape of the cells was observed | 82 | 82 | (78%) | 61 | 78 | 1 | 1 | 7 | (71%) | 65 | 71 | 0 | 1 | 5 | almost no effect | 65 |
| CC(=O)O[C@H]1C(=O)[C@@]2(C)[C@H]([C@H](OC(=O)c3ccccc3)[C@]3(O)C[C@H](OC(=O)[C@H](O)[C@@H](NC(=O)c4ccccc4)c4ccccc4)C(C)=C1C3(C)C)[C@]1(OC(C)=O)CO[C@@H]1C[C@@H]2O [paclitaxel extracted] | the same trend was observed |  |  |  |  |  |  |  |  |  |  |  |  |  |  |  |  |  |

Source: US20030008015A1, “Polymer controlled delivery of a therapeutic agent” (priority 2000, published 2003)
